Assay: collision cross section (DTIM-MS, N2); higher = larger ion
Experimental: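 Collision cross section (CCS) of drug and natural-product chemical standards (validation set 2, measured in this paper). Three independent measurements were made across 2 months; the value taken is their mean (avg_ccs), for the ion adduct given.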

SMILES: CC1(C)CCC[C@@]2(C)OC(=O)C=C12
- collision cross section (ion adduct: [M+H]+): 138.93 Å²

SMILES: COc1cc(/C=C/C(=O)O)cc(OC)c1OC [3,4,5-Trimethoxycinnamic acid]
- collision cross section (ion adduct: [M-H]-): 167.91 Å²

SMILES: COc1cc(C2c3cc4c(cc3C(O)C3COC(=O)C23)OCO4)cc(OC)c1O (stereo not given) [4'-Demethylpodophyllotoxin]
- collision cross section (ion adduct: [M+H]+): 195.99 Å²
- collision cross section (ion adduct: [M-H]-): 197.38 Å²

SMILES: O=C(C=Cc1ccc(O)c(O)c1)OC1CC(O)(C(=O)O)CC(O)C1OC(=O)C=Cc1ccc(O)c(O)c1 (stereo not given) [4,5-Dicaffeoylquinic acid]
- collision cross section (ion adduct: [M-H]-): 213.46 Å²

SMILES: Cc1cc(=O)oc2cc(O)c(O)cc12 [4-Methyl-6,7-dihydroxycoumarin]
- collision cross section (ion adduct: [M+H]+): 136.8 Å²
- collision cross section (ion adduct: [M-H]-): 135.33 Å²

SMILES: Cc1cc(=O)oc2cc(O)cc(O)c12 [5,7-Dihydroxy-4-methylcoumarin]
- collision cross section (ion adduct: [M+H]+): 136.89 Å²
- collision cross section (ion adduct: [M-H]-): 135.28 Å²

SMILES: CCCCC[C@H](O)CC(=O)CCc1ccc(O)c(OC)c1 [6-Gingerol]
- collision cross section (ion adduct: [M-H]-): 170.04 Å²

SMILES: Cc1cc(=O)oc2ccc(O)cc12 [6-Hydroxy-4-methylcoumarin]
- collision cross section (ion adduct: [M-H]-): 135.48 Å²

SMILES: O=c1ccc2cc(O)ccc2o1 [6-Hydroxycoumarin]
- collision cross section (ion adduct: [M+H]+): 129.59 Å²
- collision cross section (ion adduct: [M-H]-): 129.61 Å²

SMILES: CCCCCC=CC(=O)CCc1ccc(O)c(OC)c1 [6-Shogaol]
- collision cross section (ion adduct: [M-H]-): 167.21 Å²

SMILES: O=c1cc(-c2ccccc2)c2ccc(O)c(O)c2o1 [7,8-Dihydroxy-4-phenylcoumarin]
- collision cross section (ion adduct: [M+H]+): 156.5 Å²
- collision cross section (ion adduct: [M-H]-): 157.01 Å²

SMILES: COc1ccc2ccc(=O)oc2c1 [7-Methoxycoumarin]
- collision cross section (ion adduct: [M+H]+): 131.39 Å²

SMILES: Cc1cc(=O)oc2c([N+](=O)[O-])c(O)ccc12 [7-hydroxy-4-methyl-8-nitrocoumarin]
- collision cross section (ion adduct: [M+H]+): 144.57 Å²

SMILES: CCCCCCCC(O)CC(=O)CCc1ccc(O)c(OC)c1 (stereo not given) [8-Gingerol]
- collision cross section (ion adduct: [M-H]-): 178.08 Å²

SMILES: COC(=O)C1=CO[C@@H](O[C@@H]2O[C@H](CO)[C@@H](O)[C@H](O)[C@H]2O)[C@H]2[C@@H]1[C@H](O)C[C@]2(C)OC(C)=O [8-O-Acetylshanzhiside methyl ester]
- collision cross section (ion adduct: [M-H]-): 208.19 Å²

SMILES: CCCCCCCCC[C@H](O)CC(=O)CCc1ccc(O)c(OC)c1 [10-Gingerol]
- collision cross section (ion adduct: [M-H]-): 188 Å²

SMILES: CC(C)=CCC[C@](C)(O)[C@H]1CC[C@]2(C)[C@@H]1[C@H](O)C[C@@H]1[C@@]3(C)CC[C@H](O)C(C)(C)[C@@H]3CC[C@]12C [(20S)-Protopanaxdiol]
- collision cross section (ion adduct: [M-H]-): 222.94 Å²

SMILES: CC(C)(C)[C@]1(O)C[C@@H]2OC(=O)C[C@@]23C(=O)O[C@@H]2OC(=O)[C@H](O)[C@]213 [(-)-Bilobalide]
- collision cross section (ion adduct: [M-H]-): 162.4 Å²

SMILES: CC(C)C1=CC2=CC[C@@H]3[C@](C)(CCC[C@@]3(C)C(=O)O)[C@H]2CC1 [Abietic acid]
- collision cross section (ion adduct: [M+H]+): 174.96 Å²
- collision cross section (ion adduct: [M-H]-): 185.72 Å²

SMILES: CC(=O)Nc1nnc(S(N)(=O)=O)s1 [Acetazolamide]
- collision cross section (ion adduct: [M+H]+): 142.71 Å²
- collision cross section (ion adduct: [M-H]-): 138.64 Å²

SMILES: COc1cc(C(C)=O)ccc1O [Acetovanillone]
- collision cross section (ion adduct: [M-H]-): 133.81 Å²

SMILES: Nc1nc2c(ncn2COCCO)c(=O)[nH]1 [Aciclovir]
- collision cross section (ion adduct: [M+H]+): 149.17 Å²
- collision cross section (ion adduct: [M-H]-): 148.31 Å²

SMILES: OC[C@@H](O)[C@@H](O)[C@@H](O)[C@@H](O)CO [Allitol]
- collision cross section (ion adduct: [M-H]-): 132.47 Å²

SMILES: O=C(C=CC=Cc1ccccc1)CCc1ccccc1 [Alnustone]
- collision cross section (ion adduct: [M+H]+): 168.73 Å²
- collision cross section (ion adduct: [M-H]-): 178.13 Å²

SMILES: COc1cc(O)cc2c1C(=O)C[C@@H](c1ccccc1)O2 [Alpinetin]
- collision cross section (ion adduct: [M+H]+): 160.76 Å²

SMILES: C=CC[C@]1(O)CC[C@H]2[C@@H]3CCC4=CC(=O)CCC4=C3C=C[C@@]21C [Altrenogest]
- collision cross section (ion adduct: [M+H]+): 178.86 Å²
- collision cross section (ion adduct: [M-H]-): 180.56 Å²

SMILES: COc1cc(NS(C)(=O)=O)ccc1Nc1c2ccccc2nc2ccccc12 [Amsacrine]
- collision cross section (ion adduct: [M+H]+): 195.94 Å²
- collision cross section (ion adduct: [M-H]-): 199.97 Å²

SMILES: N#C[C@H](O[C@@H]1O[C@H](CO[C@@H]2O[C@H](CO)[C@@H](O)[C@H](O)[C@H]2O)[C@@H](O)[C@H](O)[C@H]1O)c1ccccc1 [Amygdalin]
- collision cross section (ion adduct: [M+H]+): 214.69 Å²
- collision cross section (ion adduct: [M-H]-): 205.69 Å²

SMILES: COc1ccc(C[C@H]2NC[C@H](O)[C@H]2OC(C)=O)cc1 [Anisomycin]
- collision cross section (ion adduct: [M+H]+): 164.18 Å²

SMILES: COc1ccc(C[C@H]2COC(=O)[C@@H]2Cc2ccc(O[C@@H]3O[C@H](CO)[C@@H](O)[C@H](O)[C@H]3O)c(OC)c2)cc1OC [Arctiin]
- collision cross section (ion adduct: [M-H]-): 220.58 Å²

SMILES: C[C@H]1[C@H](OC(=O)CCC(=O)O)O[C@@H]2O[C@@]3(C)CC[C@H]4[C@H](C)CC[C@@H]1[C@@]24OO3 [Artesunate]
- collision cross section (ion adduct: [M-H]-): 185.75 Å²

SMILES: O=C1C(O)=C([C@H]2CC[C@H](c3ccc(Cl)cc3)CC2)C(=O)c2ccccc21 [Atovaquone]
- collision cross section (ion adduct: [M-H]-): 193.52 Å²

SMILES: O=C(Nc1ccccc1)c1ccccc1I [Benodanil]
- collision cross section (ion adduct: [M+H]+): 152.62 Å²
- collision cross section (ion adduct: [M-H]-): 156.05 Å²

SMILES: COc1c2ccoc2cc2oc(=O)ccc12 [Bergapten]
- collision cross section (ion adduct: [M+H]+): 139.92 Å²

SMILES: COc1ccc(-c2cc(=O)c3c(O)cc(O)cc3o2)cc1-c1c(O)cc(O)c2c(=O)cc(-c3ccc(O)cc3)oc12 [Bilobetin]
- collision cross section (ion adduct: [M+H]+): 230.49 Å²
- collision cross section (ion adduct: [M-H]-): 221.44 Å²

SMILES: Oc1c(Cl)cc(Cl)cc1Sc1cc(Cl)cc(Cl)c1O [Bithionol]
- collision cross section (ion adduct: [M-H]-): 169.35 Å²

SMILES: O=C(Nc1nc(-c2ccc(O)c(O)c2)c(-c2ccccc2)s1)c1ccc(O)c(O)c1 [COH29]
- collision cross section (ion adduct: [M+H]+): 207.91 Å²
- collision cross section (ion adduct: [M-H]-): 200.74 Å²

SMILES: O=C(/C=C/c1ccc(O)c(O)c1)OCCc1ccccc1 [Caffeic acid phenethyl ester]
- collision cross section (ion adduct: [M-H]-): 176.94 Å²

SMILES: CNC(=O)Oc1cccc2ccccc12 [Carbaryl]
- collision cross section (ion adduct: [M-H]-): 144.36 Å²

SMILES: COC(=O)Nc1nc2ccccc2[nH]1 [Carbendazim]
- collision cross section (ion adduct: [M+H]+): 138.81 Å²

SMILES: COc1cc(O)cc(O)c1C(=O)/C=C/c1ccccc1 [Cardamonin]
- collision cross section (ion adduct: [M+H]+): 164.02 Å²
- collision cross section (ion adduct: [M-H]-): 167.35 Å²

SMILES: O=C(N[C@H](CO)[C@H](O)c1ccc([N+](=O)[O-])cc1)C(Cl)Cl [Chloramphenicol]
- collision cross section (ion adduct: [M-H]-): 166.95 Å²

SMILES: Nc1ccn(C[C@@H](CO)OCP(=O)(O)O)c(=O)n1 [Cidofovir]
- collision cross section (ion adduct: [M+H]+): 157.98 Å²
- collision cross section (ion adduct: [M-H]-): 158.46 Å²

SMILES: Nc1nc(Cl)nc2c1ncn2[C@@H]1O[C@H](CO)[C@@H](O)[C@@H]1F [Clofarabine]
- collision cross section (ion adduct: [M+H]+): 158.19 Å²
- collision cross section (ion adduct: [M-H]-): 162.03 Å²

SMILES: O=c1ccc2ccccc2o1 [Coumarin]
- collision cross section (ion adduct: [M+H]+): 124.69 Å²

SMILES: CC1(C)CC[C@]2(C(=O)O)CC[C@]3(C)C(=CC[C@@H]4[C@@]5(C)C[C@@H](O)[C@H](O)C(C)(C)[C@@H]5CC[C@]43C)[C@@H]2C1 [Crategolic acid]
- collision cross section (ion adduct: [M-H]-): 222.53 Å²

SMILES: CC(/C=C/C=C(\C)C(=O)O[C@@H]1O[C@H](CO)[C@@H](O)[C@H](O)[C@H]1O)=C\C=C\C=C(C)\C=C\C=C(/C)C(=O)O[C@@H]1O[C@H](CO[C@@H]2O[C@H](CO)[C@@H](O)[C@H](O)[C@H]2O)[C@@H](O)[C@@H](O)[C@H]1O [Crocin II]
- collision cross section (ion adduct: [M-H]-): 280.87 Å²

SMILES: CC(/C=C/C=C(\C)C(=O)O[C@@H]1O[C@H](CO[C@@H]2O[C@H](CO)[C@@H](O)[C@H](O)[C@H]2O)[C@@H](O)[C@H](O)[C@H]1O)=C\C=C\C=C(C)\C=C\C=C(/C)C(=O)O[C@@H]1O[C@H](CO[C@@H]2O[C@H](CO)[C@@H](O)[C@H](O)[C@H]2O)[C@@H](O)[C@H](O)[C@H]1O [Crocin]
- collision cross section (ion adduct: [M-H]-): 310.8 Å²

SMILES: C[C@H]1C(=O)O[C@@H]2CCN3CC=C(COC(=O)[C@](C)(O)[C@]1(C)O)[C@H]23 [Crotaline]
- collision cross section (ion adduct: [M+H]+): 176.34 Å²

SMILES: Nc1nc(N)nc(NC2CC2)n1 [Cyromazine]
- collision cross section (ion adduct: [M+H]+): 135.92 Å²

SMILES: Nc1ccn([C@@H]2O[C@H](CO)[C@@H](O)[C@@H]2O)c(=O)n1 [Cytarabine]
- collision cross section (ion adduct: [M-H]-): 151.89 Å²

SMILES: CCCCCCCCOC(=O)c1ccccc1C(=O)OCCCCCCCC [DI-N-OCTYL PHTHALATE]
- collision cross section (ion adduct: [M+H]+): 211 Å²

SMILES: CN(C)NC(=O)CCC(=O)O [Daminozide]
- collision cross section (ion adduct: [M-H]-): 135.88 Å²

SMILES: COc1cc2c(cc1OC)C(Cc1ccc(Oc3cc(CC4c5cc(OC)c(OC)cc5CCN4C)ccc3O)cc1)N(C)CC2 (stereo not given) [Dauricine]
- collision cross section (ion adduct: [M+H]+): 248.03 Å²
- collision cross section (ion adduct: [M-H]-): 259.6 Å²

SMILES: CC(C)=CC(=O)OC1Cc2cc3ccc(=O)oc3cc2OC1(C)C (stereo not given) [Decursin]
- collision cross section (ion adduct: [M+H]+): 185.63 Å²
- collision cross section (ion adduct: [M-H]-): 180.82 Å²

SMILES: COc1cc2c(cc1OC)[C@@H]1C(=O)c3ccc4c(c3O[C@@H]1CO2)C=CC(C)(C)O4 [Deguelin]
- collision cross section (ion adduct: [M+H]+): 196.5 Å²
- collision cross section (ion adduct: [M-H]-): 198.36 Å²

SMILES: COc1cc(C=CC(=O)CC(=O)C=Cc2ccc(O)cc2)ccc1O [Demethoxycurcumin]
- collision cross section (ion adduct: [M+H]+): 193.33 Å²

SMILES: COC1=CC(=O)O[C@@H](CCc2ccccc2)C1 [Dihydrokavain]
- collision cross section (ion adduct: [M+H]+): 149.11 Å²

SMILES: Cc1ncc([N+](=O)[O-])n1C [Dimetridazole]
- collision cross section (ion adduct: [M+H]+): 127.62 Å²

SMILES: C[C@H]1CC[C@]2(OC1)O[C@H]1C[C@H]3[C@@H]4CC=C5C[C@@H](O[C@@H]6O[C@H](CO)[C@@H](O[C@@H]7O[C@@H](C)[C@H](O)[C@@H](O)[C@H]7O)[C@H](O)[C@H]6O[C@@H]6O[C@@H](C)[C@H](O)[C@@H](O)[C@H]6O)CC[C@]5(C)[C@H]4CC[C@]3(C)[C@H]1[C@@H]2C [Dioscin]
- collision cross section (ion adduct: [M+H]+): 330.49 Å²
- collision cross section (ion adduct: [M-H]-): 324.15 Å²

SMILES: C[C@H]1CC[C@]2(OC1)O[C@H]1C[C@H]3[C@@H]4CC=C5C[C@@H](O)CC[C@]5(C)[C@H]4CC[C@]3(C)[C@H]1[C@@H]2C [Diosgenin]
- collision cross section (ion adduct: [M+H]+): 209.65 Å²

SMILES: COc1cc(O)ccc1/C=C/C(=O)c1ccc(O)cc1 [Echinatin]
- collision cross section (ion adduct: [M+H]+): 167.45 Å²
- collision cross section (ion adduct: [M-H]-): 171.54 Å²

Source: the supplement of paper PMC7455731
